# Molecular target: T1, diphosphoinositol pentakisphosphate kinase 2 (PPIP5K2) (Homo sapiens, UniProt O43314)
# T1 construct: kinase domain, residues 41–366 (crystal); residues 1–366 (kinase assay)
# T1 sequence (O43314 1-366): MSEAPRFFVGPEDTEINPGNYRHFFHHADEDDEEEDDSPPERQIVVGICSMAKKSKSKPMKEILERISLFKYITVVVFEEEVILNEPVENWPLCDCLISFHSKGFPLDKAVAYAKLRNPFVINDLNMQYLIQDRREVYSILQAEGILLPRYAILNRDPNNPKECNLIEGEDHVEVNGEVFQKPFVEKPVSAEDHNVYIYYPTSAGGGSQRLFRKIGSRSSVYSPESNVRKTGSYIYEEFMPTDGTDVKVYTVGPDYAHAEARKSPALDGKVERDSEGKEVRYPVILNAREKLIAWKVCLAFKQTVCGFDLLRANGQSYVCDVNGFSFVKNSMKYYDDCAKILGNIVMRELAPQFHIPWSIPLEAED
# Assay: X-ray co-crystal structure (soak); also reverse-kinase inhibition assay (ATP generation from ADP and […]-[PP]2-InsP4)
# Type: biochemical
smiles,measurement,value
"O=C(N[C@@H]1[C@@H](OP(=O)(O)O)[C@H](OP(=O)(O)O)[C@H](OP(=O)(O)O)[C@H](OP(=O)(O)O)[C@H]1OP(=O)(O)O)C(F)(F)P(=O)(O)O [compound 1, 5-Deoxy-5-(phosphonodifluoroacetamido)-myo-inositol 1,2,3,4,6-pentakisphosphate]",IC50,375 nM

# From paper PMC6657673, “Synthesis of an α-phosphono-α,α-difluoroacetamide analogue of the diphosphoinositol pentakisphosphate 5-InsP7” (MedChemComm, 2019)
